Source: ChEMBL document CHEMBL4602605, “Fluoroquinolones structural and medicinal developments (2013-2018): Where are we now?” (Bioorg Med Chem, 2019)
Converted amounts (≈) assume the structure as drawn.

What was measured:
[1] = test system: Staphylococcus aureus; test: Antimicrobial activity against methicillin-resistant Staphylococcus aureus ATCC 25923 by microdilution method; assay type: functional
[2] = test system: Escherichia coli; test: Antimicrobial activity against Escherichia coli ATCC […] by microdilution method; assay type: functional
[3] = test system: Escherichia coli; test: Antimicrobial activity against multidrug resistance Escherichia coli ATCC 35218 by microdilution method; assay type: functional
[4] = test system: Staphylococcus aureus; test: Antimicrobial activity against Staphylococcus aureus ATCC 29213 by microdilution method; assay type: functional
[5] = test system: Pseudomonas aeruginosa; test: Antimicrobial activity against Pseudomonas aeruginosa ATCC 43288 incubated for 18 to 24 hrs by microbroth dilution method; assay type: functional
[6] = test system: Staphylococcus aureus; test: Antimicrobial activity against Staphylococcus aureus ATCC 25923 incubated for 18 to 24 hrs by microbroth dilution method; assay type: functional
[7] = test system: Enterococcus faecalis; test: Antimicrobial activity against Enterococcus faecalis ATCC 29212 incubated for 18 to 24 hrs by microbroth dilution method; assay type: functional
[8] = test system: Bacillus cereus; test: Antimicrobial activity against Bacillus cereus 709 Roma incubated for 18 to 24 hrs by microbroth dilution method; assay type: functional
[9] = test system: Mycolicibacterium smegmatis; test: Antimicrobial activity against Mycobacterium smegmatis ATCC 607 incubated for 48 to 72 hrs by microbroth dilution method; assay type: functional
[10] = test system: Aspergillus clavatus; test: Antifungal activity against Aspergillus clavatus after overnight incubation by agar well diffusion method; assay type: functional
[11] = test system: Candida albicans; test: Antifungal activity against Candida albicans after overnight incubation by agar well diffusion method; assay type: functional
[12] = test system: PC-3; test: Growth inhibition of human PC3 cells by MTT assay; assay type: functional, cell-based
[13] = test system: Helicobacter pylori; test: Antimicrobial activity against Helicobacter pylori clinical isolate 1 after 7 days by two-fold agar dilution method; assay type: functional; details: clinical isolate 1, 168 h
[14] = test system: Helicobacter pylori; test: Antimicrobial activity against Helicobacter pylori clinical isolate 2 after 7 days by two-fold agar dilution method; assay type: functional; details: clinical isolate 2, 168 h
[15] = test system: Staphylococcus aureus; test: Antimicrobial activity against methicillin-susceptible Staphylococcus aureus ATCC 29213 incubated for 16 hrs by CLSI method; assay type: functional; details: ATCC 29213, 16 h
[16] = test system: Staphylococcus aureus; test: Antimicrobial activity against healthcare-acquired methicillin-resistant Staphylococcus aureus NRS70 incubated for 16 hrs by CLSI method; assay type: functional; details: NRS70, 16 h
[17] = test system: Mycobacterium tuberculosis; test: Antimicrobial activity against Mycobacterium tuberculosis H37Rv incubated for 10 days by microbroth dilution method; assay type: functional; details: 240 h
[18] = test system: Escherichia coli; test: Antimicrobial activity against Escherichia coli ATCC 9637 incubated for 24 hrs by CLSI-based broth microdilution method; assay type: functional; details: W ATCC 9637, 24 h
[19] = test system: Pseudomonas aeruginosa; test: Antimicrobial activity against Pseudomonas aeruginosa ATCC BAA-427 incubated for 24 hrs by CLSI-based broth microdilution method; assay type: functional; details: ATCC BAA-427, 24 h
[20] = test system: Staphylococcus aureus; test: Antimicrobial activity against methicillin-resistant Staphylococcus aureus ATCC 700699 incubated for 24 hrs by CLSI-based broth microdilution method; assay type: functional; details: ATCC 700699, 24 h
[21] = test system: Staphylococcus aureus; test: Antimicrobial activity against gentamicin-resistant Staphylococcus aureus ATCC 33592 incubated for 24 hrs by CLSI-based broth microdilution method; assay type: functional; details: ATCC 33592, 24 h
[22] = test system: Klebsiella pneumoniae; test: Antimicrobial activity against Klebsiella pneumoniae ATCC 27736 incubated for 24 hrs by CLSI-based broth microdilution method; assay type: functional; details: ATCC 27736, 24 h
[23] = test system: Staphylococcus aureus; test: Antimicrobial activity against Staphylococcus aureus ATCC 29213 incubated for 24 hrs by CLSI-based dilution method; assay type: functional; details: ATCC 29213, 24 h
[24] = test system: Staphylococcus aureus; test: Antimicrobial activity against Staphylococcus aureus ATCC 25923 incubated for 24 hrs by CLSI-based dilution method; assay type: functional; details: ATCC 25923, 24 h
[25] = test system: Pseudomonas aeruginosa; test: Antimicrobial activity against Pseudomonas aeruginosa ATCC 27853 incubated for 18 to 24 hrs by disk diffusion method; assay type: functional
[26] = test system: Escherichia coli; test: Antimicrobial activity against Escherichia coli ATCC 25922 incubated for 18 to 24 hrs by disk diffusion method; assay type: functional
[27] = test system: Staphylococcus aureus; test: Antimicrobial activity against Staphylococcus aureus ATCC 25923 incubated for 18 to 24 hrs by disk diffusion method; assay type: functional
[28] = test system: Bacillus subtilis; test: Antimicrobial activity against Bacillus subtilis 10B incubated for 18 to 24 hrs by disk diffusion method; assay type: functional

O=C(O)c1cn(C2CC2)c2c(cc(F)c3nn(CN(N4CCOCC4)N4CCOCC4)c(=O)n32)c1=O
MIC [1]: ≤ 2 µg/mL
MIC [2]: ≤ 0.25 µg/mL
MIC [3]: ≤ 2 µg/mL
MIC [4]: ≤ 0.25 µg/mL

CCN(CC)N(Cn1nc2c(F)cc3c(=O)c(C(=O)O)cn(C4CC4)c3n2c1=O)N(CC)CC
MIC [1]: ≤ 32 µg/mL
MIC [2]: ≤ 16 µg/mL
MIC [3]: ≤ 32 µg/mL
MIC [4]: ≤ 8 µg/mL

CCn1cc(C(=O)O)c(=O)c2cc(F)c(N3CCN(Cn4nc(CN5CCN(c6ccc([N+](=O)[O-])cc6)CC5)n(Cc5ccccc5)c4=S)CC3)cc21
MIC [5]: 0.06 to 0.48 µg/mL (≈ 0.0809 to 0.647 µM)
MIC [6]: 0.12 to 0.24 µg/mL (≈ 0.162 to 0.324 µM)
MIC [7]: 0.122 to 0.488 µg/mL (≈ 0.164 to 0.658 µM)
MIC [8]: 0.12 to 0.48 µg/mL (≈ 0.162 to 0.647 µM)
MIC [9]: 0.244 µg/mL (≈ 0.329 µM)

COc1c(N2CCN(C)CC2)c(F)cc2c(=O)c(C(=O)N/N=C\c3cccc(N(C)C)c3)cn(C3CC3)c12
inhibition zone (IZ) [10]: 10 mm
inhibition zone (IZ) [11]: 8 mm

COc1cc(/C=N\NC(=O)c2cn(C3CC3)c3c(OC)c(N4CCN(C)CC4)c(F)cc3c2=O)ccc1O
IC50 [12]: 14.8 µg/mL (≈ 28.3 µM)
inhibition zone (IZ) [10]: 12 mm
inhibition zone (IZ) [11]: 10 mm

CN(C)N(Cn1nc2c(F)cc3c(=O)c(C(=O)O)cn(C4CC4)c3n2c1=O)N(C)C
MIC [1]: ≤ 8 µg/mL
MIC [2]: ≤ 1 µg/mL
MIC [3]: ≤ 4 µg/mL
MIC [4]: ≤ 2 µg/mL

O=C(O)c1cn(C2CC2)c2c(cc(F)c3nn(CN(N4CCCC4)N4CCCC4)c(=O)n32)c1=O
MIC [13]: 2.5 µg/mL (≈ 5.3 µM)
MIC [14]: 0.6 µg/mL (≈ 1.27 µM)

COc1c(N2CCNCC2)c(F)cc2c(=O)c(C(=O)N3CCSC3)cn(C3CC3)c12
MIC90 [15]: 0.39 µg/mL (≈ 0.902 µM)
MIC90 [16]: 0.62 µg/mL (≈ 1.43 µM)

Cc1ccc(Nc2c(F)cc3c(=O)c(C(=O)O)cn(C4CC4)c3c2N)cc1
MIC [13]: 5 µg/mL (≈ 13.6 µM)
MIC [14]: 2.5 µg/mL (≈ 6.8 µM)

COc1c(N2CCN(C)CC2)c(F)cc2c(=O)c(C(=O)N/N=C\c3ccc(O)cc3)cn(C3CC3)c12
IC50 [12]: 14.4 µg/mL (≈ 29.2 µM)
inhibition zone (IZ) [10]: 12 mm
inhibition zone (IZ) [11]: 9 mm

Nc1c(Nc2ccc(Cl)cc2)c(F)cc2c(=O)c(C(=O)O)cn(C3CC3)c12
MIC [13]: 5 µg/mL (≈ 12.9 µM)
MIC [14]: 2.5 µg/mL (≈ 6.45 µM)

O=C(O)c1cn(C2CC2)c2c(cc(F)c3c2nnn3-c2ccc(Cl)cc2)c1=O
MIC [13]: 5 µg/mL (≈ 12.5 µM)
MIC [14]: 2.5 µg/mL (≈ 6.27 µM)

COc1ccc(Nc2c(F)cc3c(=O)c(C(=O)O)cn(C4CC4)c3c2N)cc1
MIC [13]: 2.5 µg/mL (≈ 6.52 µM)
MIC [14]: 5 µg/mL (≈ 13 µM)

COc1c(N2CCCC2)c(F)cc2c(=O)c(C(=O)Nc3nccs3)cn(C3CC3)c12
MIC90 [15]: > 201 µg/mL
MIC90 [16]: > 201 µg/mL

COc1ccc(OC)c(/C=N\NC(=O)c2cn(C3CC3)c3c(OC)c(N4CCN(C)CC4)c(F)cc3c2=O)c1
IC50 [12]: 3 µg/mL (≈ 5.58 µM)
inhibition zone (IZ) [10]: 8 mm
inhibition zone (IZ) [11]: 10 mm

C[C@H]1COc2c(-c3cc4ccccc4oc3=O)c(F)cc3c(=O)c(C(=O)O)cn1c23
MIC [17]: 12.5 µg/mL (≈ 30.7 µM)

CCn1cc(C(=O)O)c(=O)c2cc(F)c(-c3cc4ccccc4oc3=O)cc21
MIC [17]: 12.5 µg/mL (≈ 33 µM)

CC1CNCCN1N(Cn1nc2c(F)cc3c(=O)c(C(=O)O)cn(C4CC4)c3n2c1=O)N1CCNCC1C (stereo not given)
MIC [1]: ≤ 1 µg/mL
MIC [2]: ≤ 0.25 µg/mL
MIC [3]: ≤ 2 µg/mL
MIC [4]: ≤ 0.5 µg/mL

CCn1cc(C(=O)O)c(=O)c2cc(F)c(-n3cc(CO[C@H]4OC[C@@H](OC(C)=O)[C@@H](OC(C)=O)[C@@H]4OC(C)=O)nn3)c(F)c21
MIC [18]: 12.5 µg/mL (≈ 20.5 µM)
MIC [19]: > 50 µg/mL
MIC [20]: > 50 µg/mL
MIC [21]: 6.25 µg/mL (≈ 10.3 µM)
MIC [22]: 6.25 µg/mL (≈ 10.3 µM)
MIC [23]: 6.25 µg/mL (≈ 10.3 µM)
MIC [24]: 6.25 µg/mL (≈ 10.3 µM)

CCn1cc(C(=O)O)c(=O)c2cc(F)c(NNc3c[nH]c(=O)[nH]c3=O)c(F)c21
MIC [25]: > 500 µg/mL
MIC [26]: 170 µg/mL (≈ 432 µM)
MIC [27]: 195 µg/mL (≈ 496 µM)
MIC [28]: > 500 µg/mL

COc1c(N2CCN(C)CC2)c(F)cc2c(=O)c(C(=O)N/N=C\c3ccc([N+](=O)[O-])cc3)cn(C3CC3)c12
IC50 [12]: 15 µg/mL (≈ 28.7 µM)
inhibition zone (IZ) [10]: 8 mm
inhibition zone (IZ) [11]: 10 mm

CCn1cc(C(=O)O)c(=O)c2cc(F)c(NNc3ncccn3)c(F)c21
MIC [25]: > 500 µg/mL
MIC [26]: 120 µg/mL (≈ 332 µM)
MIC [27]: 150 µg/mL (≈ 415 µM)
MIC [28]: > 500 µg/mL

CCn1cc(C(=O)O)c(=O)c2cc(F)c(N3CCN(C(C)=O)CC3)cc21 [4-N-ACETYL-1-PIPERAZINYL-NORFLOXACIN]
MIC [25]: > 500 µg/mL
MIC [26]: 0.012 µg/mL (≈ 0.0332 µM)
MIC [27]: 10.7 µg/mL (≈ 29.7 µM)
MIC [28]: 0.805 µg/mL (≈ 2.23 µM)
